# Source: patent US12517131B2, “Methods for labeling eukaryotic cells from a multicellular organism as well as for treating and/or diagnosing a cancer using modified monosaccharide compounds” (DIAMIDEX, priority 2019, dated 2026)
# Tests used:
# Test in all cases: Labeling of cancer and non-cancer cells, fluorescence signal ratio
# Assay type in all cases: cell-based, human
# [1] = tested on: Kasumi-1 (vs B12-F8); details: Kasumi-1 (48 h) vs B12-F8 (24 h); Ara-N3 10 mM; FBS 10%; one doubling time
# Experimental: (§1) The fluorescence Assimilation of Ara-N3 probes was visualized by copper-free click chemistry using sulfo-DBCO-biotin (1 mM), followed by labeling with a mouse anti-biotin Alexa Fluor 488 antibody conjugate (0.62 mg/ml stock, Jackson ImmunoResearch, dilution 1/10). The click reaction was carry-out as following: At 24 h incubation times, the culture mediums were removed, and attached cells were washed twice with PBS. Cells were detached with Tryp-LE, washed twice with PBS, and centrifuged at 13000 g for 2 min. The cellular pellets were resuspended with 10 μL of sulfo-DBCO-biotin and incubated 30 min in the dark, and at 37 C°. Then, cells were washed twice with PBS, centrifuged, and cellular pellets were resuspended with 10 μL of a mouse anti-biotin antibody solution, before to be incubated at room temperature in dark. Thereafter, cells were washed twice with PBS and small cellular suspension spots (5 μL) were put in Polysine® adhesion slides (VWR international S.A.S), in the dark room, until dry (20 min). The spots were fixed with 4% paraformaldehyde during 20 min, in dark and room temperature. Slides were then washed twice with PBS, before recovering with square cover glasses (VWR international S.A.S) using glycerol Mounting Medium (Dako) and stored at 4° C. in dark room.
# (§2) The fluorescence acquisition was recorded using Olympus Microscopy IX83 (Olympus Life Science) equipped with a 60×/1.3 […]/1.4 SRI (silicone refractive index) objective, and Hamamatsu oreca flash 4 LT camera with 109 nm/pixel calibrated pixel size. The excitation light was emitted by X-CITE 120LED using the AT180/30X excited filter and signal was monitored using AT535/40m emission filter. Green light exposition time was 600 ms and white light exposition time was determined by DIC methods at […]. The acquisition area size analyzed by the Celisens dimension V1.16 software was different depending on the cell number containing in the spot.
# (§3) The images were processed using count and measure unit of the Cellsens dimension V1.16 software. The background noise was deleted as follows: ROI were first defined on the background of the image and the average pixel intensity was calculated. The value thus obtained was subtracted from all pixels of the image. The fluorescence intensity of each cell was determined from a threshold set at a value of 3030. All pixels that have intensity below 3030 were not counted.
# (§4) The same experiments as in example 2 with other cancer and corresponding non cancer cells were performed. The culture media were adapted to the tested cells and supplemented by 10% fetal bovine serum (FBS). Ara-N3 probe (10 mM) was added to culture media with FBS concentration (10%). The incubation times corresponded to one doubling time or twice doubling time of the tested cells (see table below).
# (§5) The fluorescence signal cancer/non cancer ratios were calculated based on fluorescence intensities obtained with Ara-N3 tested on cancer and corresponding non cancer cells.
# [2] = tested on: AGS (vs Stomach epitelial cell); details: AGS (doubling time 30 h) vs Stomach epitelial cell (30 h); Ara-N3 10 mM; FBS 10%; test at 2 doubling time
# Experimental: as §1, §2, §3, §4, §5
# [3] = tested on: THP1 (vs Monocytes/Macrophages); details: THP1 (26 h) vs Monocytes/Macrophages (26 h); Ara-N3 10 mM; FBS 10%; one doubling time
# Experimental: as §1, §2, §3, §4, §5
# [4] = tested on: MDA MB453 (vs HME-1); details: MDA MB453 (30 h) vs HME-1 (30 h); Ara-N3 10 mM; FBS 10%; one doubling time
# Experimental: as §1, §2, §3, §4, §5
# [5] = tested on: RS4 (vs Lymphocytes T); details: RS4 (35 h) vs Lymphocytes T (24 h); Ara-N3 10 mM; FBS 10%; one doubling time
# Experimental: as §1, §2, §3, §4, §5
# [6] = tested on: PANC (vs HPNE); details: PANC (32 h) vs HPNE (32 h); Ara-N3 10 mM; FBS 10%; one doubling time
# Experimental: as §1, §2, §3, §4, §5
# [7] = tested on: OCI-Ly3 (vs Isolated primary B cells); details: OCI-Ly3 (24 h) vs Isolated primary B cells; Ara-N3 10 mM; FBS 10%
# Experimental: as §1, §2, §3, §4, §5
# [8] = tested on: A375 (vs PIG); details: A375 (26 h) vs PIG (26 h); Ara-N3 10 mM; FBS 10%; one doubling time
# Experimental: as §1, §2, §3, §4, §5
# [9] = tested on: KCL22 (vs Lymphocytes); details: KCL22 (24 h) vs Lymphocytes (24 h); Ara-N3 10 mM; FBS 10%; one doubling time
# Experimental: as §1, §2, §3, §4, §5
# [10] = tested on: MDA-MB-231 (vs Breast epithelial cell); details: MDA-MB-231 (doubling time 40 h) vs Breast epithelial cell (40 h); Ara-N3 10 mM; FBS 10%; test at 2 doubling time
# Experimental: as §1, §2, §3, §4, §5
# [11] = tested on: NAMALWA (vs B12-F8); details: NAMALWA (20 h) vs B12-F8 (24 h); Ara-N3 10 mM; FBS 10%; one doubling time
# Experimental: as §1, §2, §3, §4, §5
# [12] = tested on: DOHH-2 (vs Isolated primary B cells); details: DOHH-2 (40-48 h) vs Isolated primary B cells; Ara-N3 10 mM; FBS 10%
# Experimental: as §1, §2, §3, §4, §5
compound,measurement,setting,value
"[N-]=[N+]=NC[C@H]1OC(O)[C@@H](O)[C@@H]1O (stereo partly drawn) [Ara-N3, 5-azido-5-deoxy-D-arabinofuranose]",Cancer/Non Cancer Ratio (fluorescence signal),[1],1.5
same,Cancer/Non Cancer Ratio (fluorescence signal),[2],2.9
same,Cancer/Non Cancer Ratio (fluorescence signal),[3],19.5
same,Cancer/Non Cancer Ratio (fluorescence signal),[4],2.2
same,Cancer/Non Cancer Ratio (fluorescence signal),[5],1.6
same,Cancer/Non Cancer Ratio (fluorescence signal),[6],1.8
same,Cancer/Non Cancer Ratio (fluorescence signal),[7],6.2
same,Cancer/Non Cancer Ratio (fluorescence signal),[8],3.5
same,Cancer/Non Cancer Ratio (fluorescence signal),[9],4.9
same,Cancer/Non Cancer Ratio (fluorescence signal),[10],2.5
same,Cancer/Non Cancer Ratio (fluorescence signal),[11],2.3
same,Cancer/Non Cancer Ratio (fluorescence signal),[12],7.4
